{"source": "paper PMC3485228", "about": "“Structure-Based Engineering Increased the Catalytic Turnover Rate of a Novel Phenazine Prenyltransferase” (PLoS ONE, 2012)", "biological_target": "T1, EpzP (Streptomyces virginiae, UniProt E5KWG9)", "T1 construct": "pET28a His6-tag, E. coli Rosetta2; tag thrombin-cleaved for structures (EpzPm: lysines reductively methylated, 18 of 19)", "T1 sequence (E5KWG9 1-302)": "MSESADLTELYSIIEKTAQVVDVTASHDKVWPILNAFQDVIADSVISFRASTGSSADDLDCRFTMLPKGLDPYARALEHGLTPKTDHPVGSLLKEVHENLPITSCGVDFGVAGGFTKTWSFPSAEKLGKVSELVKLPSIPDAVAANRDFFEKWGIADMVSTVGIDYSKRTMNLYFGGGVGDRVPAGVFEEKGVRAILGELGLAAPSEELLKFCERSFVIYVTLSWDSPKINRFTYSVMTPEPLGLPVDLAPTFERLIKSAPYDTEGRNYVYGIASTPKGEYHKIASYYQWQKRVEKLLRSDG", "experiment": "X-ray crystal structure ([…] A)", "type": "binding", "settings": "lysine-methylated EpzP; crystal soaked with 5 mM DMSPP, hydrolysed to SPP; diphosphate site; acidic pH", "data": [{"smiles": "O=P(O)(O)OP(=O)(O)S", "note": "(stereo not shown) [S-thiolodiphosphate]", "values": [{"measurement": "X-ray crystal structure (1.67 A)", "value": "revealed the presence of a S-thiolodiphosphate (SPP) moiety in the diphosphate binding site"}]}]}
